Laboratory results published in US20020002140A1, “Novel bisphosphonates and uses thereof” (priority 2000, published 2002).
Where two headings read alike, the source gives them in different places.

How the values were obtained:
osteoclasts = test: Assay of bone resorption in vitro (bone slice assay); assay type: cell-based; conditions: chick embryo bone cells on dentine discs; FIG. 1 (MH2 vs MH3), FIG. 2 (alendronate vs glucoside)
Description: Resorption lacunae where identified and quantitated using an Olympus BH2 microscope fitted for incident light microscopy. The plan area of resorption was determined by point counting using a ×10 objective and a drawing tube. The total area of each disc was analyzed.

[1] = given orally; cited from earlier work
[2] = system: bone cell suspension, including osteoclasts and other cell types; conditions: FIG. 3, concentrations up to 10^−4M, Sodium Salt
Description: Sterile, devitalized discs of dentine (diameter 4 mm) where prepared and placed in a 96 well tissue culture plate, one disc per well, and pre-wet overnight in α-MEM tissue culture medium supplemented with 10% fetal calf serum. The femora and tibiae where dissected from 18 day chick embryos and transferred into α-MEM culture medium supplemented with 10% fetal calf serum.
The bones were finely minced using a sharp scalpel and the resulting suspension was triturated using a sterile pipette and transferred to a sterile plastic tube. The suspension was allowed to stand for one minute so that fragments of bone and other debris settled and the upper layer containing a bone cell suspension, including osteoclasts and other cell types, was harvested.
Aliquots of this bone cell suspension were added to the culture wells containing the devitalized dentine discs. Cells where allowed to settle for between 2 and 24 hours. The medium was then removed and new medium containing the test reagents was added. Cells where cultured for periods of time up to 72 hours after which time the dentine discs were washed in PBS at 37° C., fixed in 4% glutaraldehyde in 0.2 M sodium cacodylate, and stained for 5 minutes in 1% (w/v) toluidine blue in 0.5% disodium tetraborate. Excess stain was removed by washing in 70% ethanol for one minute. The dentine discs were then washed in tap water and air-dried.

In the case of `CC(Nc1ccc(O)cc1)(P(=O)(O)O)P(=O)(O)O` [MH2, 1-((4-hydroxyphenyl)amino)ethylidene-1,1-diphosphonic acid], the “effect on bone resorption (plan area of resorption lacunae on dentine discs)” value (osteoclasts) is reported as “substantially less effect than MH3”.
For `NCCCC(O)(P(=O)(O)O)P(=O)(O)O` [FOSAMAX, alendronate sodium], the “drug absorbed from the gut, on average” value [1] is listed as “about 0.7%”.
For `O=P([O-])(O)C(O)(CCCNC1O[C@H](CO)[C@@H](O)[C@H](O)[C@H]1O)P(=O)(O)O.[Na+]` (stereo partly shown) [glucoside, N-glucopyranosyl Alendronate Sodium Salt], the “toxicity (cell number)” value [2] was “substantially no toxicity” and the “toxicity (cell number)” value ([2]; listed as alendronate glycoside) was “substantially less toxicity than unglycosylated alendronate”.
